Results on seven molecules are retold here after the NIST ThermoML archive (doi:10.1016/j.jct.2013.09.005).

The conditions of series [1]: 303.15 K, 101.33 kPa, Liquid; for viscosity: Capillary tube (Ostwald / Ubbelohde) method; for speed of sound: Linear variable-path acoustic interferometer; for mass density: Pycnometric method.
Series [2] can be described thus: xn = mol fraction of the nth substance listed. As to conditions: 303.15 K, 101 kPa, Liquid, x1 = 0.5; for viscosity: Capillary tube (Ostwald / Ubbelohde) method; for speed of sound: Frequency=2 MHz; for mass density: Pycnometric method.

± gives the expanded uncertainty stated by the source.

Usually viscosity stands for the internal friction of a fluid under shear. What is called speed of sound is how fast a sound wave travels through the sample. By mass density is commonly meant the mass of a sample divided by its volume.

As to `CCCCO` [butan-1-ol], in series [1], the viscosity is listed as 2.054 ± 0.21 mPa·s, the speed of sound is on record as 1228.4 ± 1.9 m/s and the mass density amounted to 804 ± 4 kg/m3.
Turning to `CCOC(=O)c1ccccc1` [ethyl benzoate], in series [1], the viscosity came out at 1.749 ± 0.17 mPa·s, the speed of sound came to 1345.4 ± 2 m/s and the mass density is listed as 1042 ± 4 kg/m3.
Take `CCOC(=O)c1ccccc1` [ethyl benzoate] + CCCO: in series [2], the viscosity was 1.679 ± 0.17 mPa·s and the mass density came to 918.5 ± 4 kg/m3. For the same molecule, the speed of sound in series [2] (variable-path interferometer) is on record as 1261.4 ± 1.9 m/s.
`COC(=O)c1ccccc1` [methyl benzoate]: in series [1], the viscosity was determined as 1.67 ± 0.17 mPa·s, the speed of sound worked out at 1399.4 ± 2 m/s and the mass density is given as 1077 ± 4 kg/m3.
On to `COC(=O)c1ccccc1` [methyl benzoate] + CCCO, for which, in series [2], the viscosity is given as 1.634 ± 0.16 mPa·s and the mass density stood at 944.5 ± 4 kg/m3. In addition, the speed of sound in series [2] (Linear variable-path acoustic interferometer) stood at 1296.6 ± 1.9 m/s.
For `CCCCCO` [pentan-1-ol], in series [1], the viscosity is reported as 3.012 ± 0.3 mPa·s, the speed of sound turned out to be 1252.4 ± 1.9 m/s and the mass density is recorded as 810 ± 4 kg/m3.
`CCCO` [propan-1-ol]: in series [1], the viscosity was 1.61 ± 0.16 mPa·s, the speed of sound is 1189.2 ± 1.9 m/s and the mass density is 798 ± 4 kg/m3.
